Among the test systems are PC-3 prostate; HOP-92 NSCLC; MDA-MB-435; NCI/ADR-RES ovarian; ACHN renal; NCI-H460 lung; HS 578T breast; SF-539 CNS; SK-OV-3 ovarian; BT-549 breast; MDA-MB-231 breast; MOLT-4 leukemia; NCI-H23 lung; SN12C renal; NCI-H226 lung; LXFL 529 NSCLC.
What all share (assay): NCI-60 cell line screen, 48 h

Where “and” joins values, the source holds several entries; their conditions need not be identical. Equal values may be shown once.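 Exposure lasted 48 hours, with cells grown in 96-well plates and compounds tested at five concentrations. GI50 marks 50% less growth. The concentration for full growth arrest is given as TGI.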

On to `COC(=O)CCC(C)C1CCC2C3CCC4CC5CCC4(C)C3(O5)C(Br)C(Br)C12C` (stereo not drawn), for which the TGI with PC-3 prostate, in the assay with HOP-92 NSCLC, with MDA-MB-435, in the assay on NCI/ADR-RES ovarian, in the assay on ACHN renal and with NCI-H460 lung was above 100 µM each time. Besides, the TGI in the assay on HS 578T breast, in the assay on SF-539 CNS, in the assay with SK-OV-3 ovarian, with BT-549 breast, in the assay with MDA-MB-231 breast and in the assay on MOLT-4 leukemia was above 100 µM in each case. Also, the TGI with NCI-H23 lung, in the assay with SN12C renal and with NCI-H226 lung was above 100 µM in each case.

`O=C1CCc2cc3c(cc21)CC1(Cc2cc4c(cc2C1)CCCC4)C3`: the TGI with PC-3 prostate was above 100 µM; in the assay on HOP-92 NSCLC, 11.4 µM; in the assay on MDA-MB-435, 51 µM; in the assay on NCI/ADR-RES ovarian it was above 100 µM; with ACHN renal, above 100 µM; with NCI-H460 lung, above 100 µM. Also, the TGI was 90.2 µM in the assay on HS 578T breast; above 100 µM with SF-539 CNS; above 100 µM with SK-OV-3 ovarian; above 100 µM in the assay on BT-549 breast; above 100 µM with MDA-MB-231 breast; above 100 µM in the assay on MOLT-4 leukemia. For the same compound, the TGI in the assay on NCI-H23 lung and with SN12C renal was above 100 µM throughout.

With `CCOC(=O)/C=C/c1c[nH]c(C(=O)OCC)c1`, the TGI in the assay on HOP-92 NSCLC, in the assay on NCI/ADR-RES ovarian, with NCI-H460 lung, in the assay on SF-539 CNS, in the assay with SK-OV-3 ovarian and in the assay with MOLT-4 leukemia was above 100 µM each time. In addition, the TGI in the assay on NCI-H23 lung, in the assay on SN12C renal and in the assay on NCI-H226 lung was above 100 µM each time.

Take `CC(=O)c1cccc(NC(=O)C(=O)C(C(=O)c2ccccc2F)C2OC(=O)c3ccccc32)c1` (stereo not drawn): the TGI in the assay on HOP-92 NSCLC, in the assay on ACHN renal, with NCI-H460 lung, in the assay on SK-OV-3 ovarian, with LXFL 529 NSCLC and with MOLT-4 leukemia was above 100 µM throughout. In addition, the results for the TGI in the assay with NCI-H23 lung, in the assay with SN12C renal and in the assay on NCI-H226 lung were above 100 µM, above 100 µM and 67.3 µM, respectively.

For the compound `CC(C)CCCC(C)[C@H]1CC[C@H]2[C@@H]3CC[C@H]4C[C@@H](CCC=C(c5cc(Cl)c(O)c(C(=O)O)c5)c5cc(Cl)c(O)c(C(=O)O)c5)CC[C@]4(C)[C@H]3CC[C@]12C` (stereo partly drawn) (tested in a mixture with another compound), the TGI with PC-3 prostate, in the assay with HOP-92 NSCLC, with MDA-MB-435, in the assay on NCI/ADR-RES ovarian, in the assay with ACHN renal and in the assay on NCI-H460 lung was above 50 µM each time. Moreover, the TGI with HS 578T breast, in the assay with SF-539 CNS, in the assay on SK-OV-3 ovarian, with BT-549 breast, in the assay with MDA-MB-231 breast and with MOLT-4 leukemia was above 50 µM each time. Moreover, the TGI in the assay on NCI-H23 lung, with SN12C renal and in the assay with NCI-H226 lung was above 50 µM each time.

In the case of `Nc1nc(Cl)cc(NCCCCCCCCCCCCNc2cc(Cl)nc(N)n2)n1`, the TGI in the assay on HOP-92 NSCLC is 19.3 µM; in the assay with NCI-H460 lung it was above 100 µM; in the assay with SF-539 CNS, 72.5 µM; in the assay with SK-OV-3 ovarian, above 100 µM; in the assay with LXFL 529 NSCLC, 53 µM; in the assay with MOLT-4 leukemia it was above 100 µM. Moreover, the TGI with NCI-H23 lung was 12.6 µM; in the assay with SN12C renal, above 100 µM; in the assay with NCI-H226 lung it was 66.9 µM.

In the case of `CC[C@](C)(O)C(=O)O[C@H]1C(=O)O[C@@H]2C[C@H]3C(C)=C[C@H](O)[C@@H](O)[C@]3(C)[C@H]3[C@@]4(O)OC[C@]32[C@@H]1[C@@H](C)[C@H]4O`, the TGI in the assay on HOP-92 NSCLC is 83.1 µM; with NCI/ADR-RES ovarian, above 205 µM; in the assay on NCI-H460 lung, 31.3 µM; with SF-539 CNS it was 47.2 µM; in the assay with SK-OV-3 ovarian, 263 µM; in the assay on MOLT-4 leukemia it was 27.5 µM. Further, the TGI in the assay with NCI-H23 lung came to 13.5 µM; in the assay with SN12C renal it was 310 µM; in the assay on NCI-H226 lung it was 81.2 µM.

Regarding `CCOC(=O)C1=NN(c2ccccc2)C2=CC(C)=NN(C)C(=S)N21`, the TGI with PC-3 prostate, in the assay on HOP-92 NSCLC, in the assay with MDA-MB-435, in the assay with NCI/ADR-RES ovarian, with ACHN renal and with NCI-H460 lung was above 100 µM in each case. In addition, the TGI with HS 578T breast, in the assay on SF-539 CNS, with SK-OV-3 ovarian, with BT-549 breast, in the assay with MDA-MB-231 breast and in the assay on MOLT-4 leukemia was above 100 µM in each case. In addition, the TGI in the assay on NCI-H23 lung and with SN12C renal was above 100 µM each time.

Take `ClCc1ccc2ccc3ccc(CCl)nc3c2n1`: the TGI is 3.63 µM with HOP-92 NSCLC; 3.66 µM with NCI/ADR-RES ovarian; 19.6 µM in the assay with NCI-H460 lung; 5.85 µM in the assay with SF-539 CNS; 4.02 µM in the assay on MOLT-4 leukemia; 7.88 µM in the assay with NCI-H23 lung. The compound also registered a TGI in the assay on NCI-H226 lung of 9.91 µM.

Take `COc1cc(C2c3cc4c(cc3[C@@H](NCCCN(C)C)[C@H]3COC(=O)C23)OCO4)cc(OC)c1O` (stereo partly drawn): the GI50 with HOP-92 NSCLC is 0.0952 µM and 0.482 µM; with NCI-H23 lung it was 0.139 µM and 0.291 µM; with SN12C renal, 0.117 µM and 0.333 µM. Also, the TGI is 0.368 µM and 1.85 µM with HOP-92 NSCLC; 0.369 µM and 0.496 µM in the assay with ACHN renal; 0.632 µM and 0.336 µM in the assay on NCI-H460 lung; 1.05 µM and 0.981 µM in the assay on SF-539 CNS; 1.26 µM and 1.2 µM in the assay on SK-OV-3 ovarian; 25.7 µM and > 20 µM with LXFL 529 NSCLC. For the same compound, the TGI in the assay with MOLT-4 leukemia is 0.21 µM; in the assay with NCI-H23 lung, 0.759 µM and 1.56 µM; with SN12C renal, 0.502 µM and 1.14 µM.
